Test results published in patent publication US11986530B2, “Drug composition for parenteral administration” (THERABIOPHARMA INC., priority 2016, dated 2024).

Legend:
A549 = settings: A549, in vitro; cited from earlier work
U266 = settings: U266, in vitro; cited from earlier work
β-glucuronidase = settings: 10 μL of 2.45 μg/mL substrate, pH 5.0, 37° C., 1 hour, n=3
Description: In this regard, as a control, curcumin monoglucuronide was used for the examination.
In addition, as the curcumin diglucuronide, commercially available curcumin diglucuronide (manufactured by SynInnova Laboratories Inc.) was used.
Next, into the resultant mixture, 0.5 mL of chloroform was added, and the mixture was stirred for 1 minute with a vortex mixer, and then the stirred mixture was treated for 15 minutes by using an ultrasonic generator, and the treated mixture was fractionated into a chloroform layer and a water layer by centrifugation (10,000×g, for 5 minutes, at room temperature). Further, this fractionation process was repeated twice. After that, the chloroform layer was collected, and dried and solidified by distilling off the solvent with a vacuum centrifugal concentrator, and to the dried and solidified matter, 100 μL of 50% (v/v) methanol was added, and then the resultant mixture was centrifuged (10,000×g, for 5 minutes, at room temperature) to collect a supernatant liquid, and the collected supernatant liquid was taken as an enzyme-treated sample.
In 2 μL of the enzyme-treated sample prepared in the above (2), free curcumin was measured by the method described in “b.

Jurkat cells = settings: in vitro; cited from earlier work
KBM-5 = settings: KBM-5, in vitro; cited from earlier work
[1] = tested on: colorectal cancer cells derived from adult human colon HCT116; assay: Anti-tumor effect by intravenous administration of curcumin conjugates (tumor size, HCT116 transplanted mice); type: in vivo, BALB/cAnNcr j-nu/nu (homo) mice; settings: parenteral (i.v.) administration, 30 or 90 mg/kg, versus control group
Text: 1×10^7 or 4×10^6 colorectal cancer cells derived from adult human […] colon HCT116 (ATCC No. CCL-247) were transplanted subcutaneously into the flank of each of the test animals by using a 27 G injection needle.
In this regard, in the control group, mice to which water for injection excluding curcumin monoglucuronide had been administered intravenously were used.
For the tumor size, after each lapse of 0, 4, 7, 11 and 14 days from the start of administration or after each lapse of 0, 4, 7, 11, 14, 18 and 21 days from the start of administration, the length, width and height of the tumor were measured by using a vernier caliper, and the tumor size was calculated by the following equation. Tumor size (mm^3)=length×width×height×0.5 (5) Concentration of Curcumin Conjugates and Free Curcumin in Tumor Tissue

[2] = Concentration of curcumin conjugates and free curcumin in tumor tissue; type: in vivo, BALB/cAnNcr j-nu/nu (homo) mice; settings: mouse, day 21
Description: For the mice (n=8) inoculated with the 4×10^6 cancer cells (HCT116), the tumor after the lapse of 2 hours from the intravenous administration of curcumin monoglucuronide (90 mg/kg) after the lapse of 21 days from the start of inoculation was removed from each of the mice, the removed tumor was rinsed with a saline solution, and then immediately frozen in liquid nitrogen, and the frozen tumor was stored in an ultra-low temperature tank at −80° C.
The frozen and stored tumor was thawed while cooling in ice, an adequate amount of a saline solution was added to the thawed tumor, and the thus obtained tumor was homogenized with a glass homogenizer, the concentration of each of the curcumin conjugates and free curcumin in the pulverized tumor obtained as described above were measured to examine the concentration of each of the curcumin conjugates and free curcumin contained in the tumor tissue.

[3] = Intravenous administration test: concentration of curcumin conjugates and free curcumin in plasma; type: in vivo, SD rats; settings: rat
Description: As the test animals, 9-week old SD rats (male, with a body weight of 330 to 360 g, CHARLES RIVER LABORATORIES JAPAN, INC.) were used.
The intravenous administration was performed as follows: a predetermined amount of the curcumin monoglucuronide prepared in Production Example 1 was dissolved into water for injection so as to be 30 mg/kg; and the obtained preparation was administered intravenously to each of the test animals (n=5) fasted for 12 hours or more before the administration via an indwelling catheter in the femoral artery of each of the test animals. In this regard, the catheter was indwelled in the femoral artery under isoflurane anesthesia on the day of administration and blood collection.
Blood was collected via a catheter from the femoral artery of each of test animals by using a heparin-treated syringe under the restraint condition in a Ballman cage without anesthesia. In this regard, around 0.6 mL of blood was collected after each lapse of 1, 3, 5, 10, 15, 30, 60, 120, 240 and 480 minutes from the start of intravenous administration, and the collected blood was centrifuged (at 3,000 rpm, for 10 minutes, at 4° C.) to obtain the plasma.
The concentration of each of the curcumin conjugate and free curcumin in plasma was determined by the following methods.
Further, this fractionation process was repeated twice.
In this regard, in the following test, a supernatant liquid prepared by using a β-glucuronidase solution was used as an enzyme-treated sample, and a supernatant liquid prepared by using distilled water in place of the β-glucuronidase solution was used as a non-enzyme-treated sample.
By analyzing 2 μL of the enzyme-treated or non-enzyme-treated sample prepared in the above-described “a. Pretreatment” using LC-MS/MS (manufactured by Shimadzu Corporation), the concentration of each of the curcumin conjugate and free curcumin in plasma was determined.
That is, by measuring the concentration of the curcumin contained in the enzyme-treated sample that had been obtained by the treatment with β-glucuronidase, the total concentration of curcumin in plasma was measured.
On the other hand, by measuring the concentration of the curcumin in the non-enzyme-treated sample that had not been treated with β-glucuronidase, the concentration of free curcumin in plasma was measured.
Further, by subtracting the concentration of free curcumin from the total concentration of curcumin, the concentration of the curcumin conjugates contained in plasma was calculated.
In this regard, the LC-MS/MS analysis conditions were set to be a LC column of Atlantis T3 (2.1×150 mm, 3 μm, manufactured by Waters), a column temperature of 40° C., a flow rate of 0.2 mL/min, and a mobile phase of A of a 0.1% formic acid aqueous solution and B of 0.1% formic acid/acetonitrile, and the gradient elution was performed under the following conditions (Table 1). In addition, the MS analysis conditions were set to be an ionization mode of […] (ESI), Positive, a measurement mode of Multiple Reaction Monitoring (MRM), curcumin of 369.1→177.2 (m/z), and mepronil of 270→119 (m/z), and the evaluation was performed.

[4] = tested on: human hepatocellular carcinoma cell lines (HepG2 cells); settings: cited from earlier work
[5] = cited from earlier work

COc1cc(/C=C/C(=O)CC(=O)/C=C/c2ccc(O[C@@H]3O[C@H](C(=O)O)[C@@H](O)[C@H](O)[C@H]3O)c(OC)c2)ccc1O[C@@H]1O[C@H](C(=O)O)[C@@H](O)[C@H](O)[C@H]1O [curcumin diglucuronide]
cell growth inhibitory effect (A549): there is no such an effect
cell growth inhibitory effect (U266): there is no such an effect
concentration of the curcumin contained in the enzyme-treated sample (β-glucuronidase): 82.4 ± 0.8 ng/mL
cell growth inhibitory effect (Jurkat cells): there is no such an effect
cell growth inhibitory effect (KBM-5): there is no such an effect

COc1cc(/C=C/C(=O)CC(=O)/C=C/c2ccc(O[C@@H]3O[C@H](C(=O)O)[C@@H](O)[C@H](O)[C@H]3O)c(OC)c2)ccc1O [curcumin monoglucuronide]
effect on tumor growth (in words) [1]: significantly suppressing the tumor growth
concentration of the free curcumin in the tumor tissue ([2]; 2 hours after 90 mg/kg i.v. of conjugate): 1464.5 ± 840.9 ng/g
concentration of the curcumin conjugates in the tumor tissue ([2]; 2 hours after 90 mg/kg i.v.): 605.4 ± 465.5 ng/g
Cmax (ng/mL) of curcumin conjugates in plasma ([3]; 30 mg/kg i.v.): 160492 ± 19156 ng/mL
AUC 0.02-8 h (ng·h/mL) of free curcumin in plasma ([3]; 30 mg/kg i.v. of conjugate): 2780 ± 962 ng·h/mL
Cmax (ng/mL) of free curcumin in plasma ([3]; 30 mg/kg i.v. of conjugate): 10143 ± 3832 ng/mL
concentration of free curcumin in plasma ([3]; 30 mg/kg i.v. of conjugate, 1 minute after administration): 10143 ± 3832 ng/mL
concentration of free curcumin in plasma ([3]; 30 mg/kg i.v. of conjugate, 3 minutes): 7562 ± 2903 ng/mL
concentration of free curcumin in plasma ([3]; 30 mg/kg i.v. of conjugate, 5 minutes): 5707 ± 2539 ng/mL
concentration of free curcumin in plasma ([3]; 30 mg/kg i.v. of conjugate, 10 minutes): 3596 ± 1233 ng/mL
concentration of free curcumin in plasma ([3]; 30 mg/kg i.v. of conjugate, 15 minutes): 2764 ± 796 ng/mL
concentration of free curcumin in plasma ([3]; 30 mg/kg i.v. of conjugate, 30 minutes): 1605 ± 592 ng/mL
concentration of free curcumin in plasma ([3]; 30 mg/kg i.v. of conjugate, 1 hour): 568 ± 197 ng/mL
concentration of free curcumin in plasma ([3]; 30 mg/kg i.v. of conjugate, 2 hours): 117 ± 39 ng/mL
concentration of free curcumin in plasma ([3]; 30 mg/kg i.v. of conjugate, 4 hours): 16 ± 5 ng/mL
concentration of free curcumin in plasma ([3]; 30 mg/kg i.v. of conjugate, 8 hours): 6 ± 14 ng/mL
concentration of curcumin conjugates in plasma ([3]; 30 mg/kg i.v., 1 minute after administration): 160492 ± 19156 ng/mL
concentration of curcumin conjugates in plasma ([3]; 30 mg/kg i.v., 3 minutes): 77803 ± 6442 ng/mL
concentration of curcumin conjugates in plasma ([3]; 30 mg/kg i.v., 5 minutes): 80489 ± 7161 ng/mL
concentration of curcumin conjugates in plasma ([3]; 30 mg/kg i.v., 10 minutes): 46853 ± 10700 ng/mL
concentration of curcumin conjugates in plasma ([3]; 30 mg/kg i.v., 15 minutes): 22918 ± 5271 ng/mL
concentration of curcumin conjugates in plasma ([3]; 30 mg/kg i.v., 30 minutes): 10191 ± 3502 ng/mL
concentration of curcumin conjugates in plasma ([3]; 30 mg/kg i.v., 1 hour): 4363 ± 1354 ng/mL
concentration of curcumin conjugates in plasma ([3]; 30 mg/kg i.v., 2 hours): 1493 ± 371 ng/mL
concentration of curcumin conjugates in plasma ([3]; 30 mg/kg i.v., 4 hours): 403 ± 120 ng/mL
concentration of curcumin conjugates in plasma ([3]; 30 mg/kg i.v., 8 hours): 78 ± 39 ng/mL

COc1cc(/C=C/C(=O)/C=C(O)/C=C/c2ccc(O)c(OC)c2)ccc1O [curcumin]
cell growth inhibitory effect (A549): has an effect of suppressing the growth of these cells
cell growth inhibitory effect [4]: found the cell growth inhibitory effect
cell growth inhibitory effect (U266): has an effect of suppressing the growth of these cells
solubility in water [5]: hardly soluble in water
cell growth inhibitory effect (Jurkat cells): has an effect of suppressing the growth of these cells
cell growth inhibitory effect (KBM-5): has an effect of suppressing the growth of these cells
